Activity calls are given as the source filed them.
Legend:
Staphylococcus aureus [1] = experiment: Antimicrobial activity against Staphylococcus aureus at 5 ug/disc after 24 hr by disk diffusion method; conditions: read-out: IZ
Shigella flexneri [2] = experiment: Antimicrobial activity against Shigella flexneri at 5 ug/disc after 24 hr by disk diffusion method; assay type: functional; conditions: read-out: IZ
Salmonella typhi [3] = experiment: Antimicrobial activity against Salmonella enterica subsp. enterica serovar Typhi at 5 ug/disk after 24 hr by disk diffusion method; assay type: functional; conditions: read-out: IZ
Klebsiella pneumoniae [4] = experiment: Antimicrobial activity against Klebsiella pneumoniae at 5 ug/disk after 24 hr by disk diffusion method; conditions: read-out: IZ
Pseudomonas [5] = experiment: Antimicrobial activity against Pseudomonas at 5 ug/disk after 24 hr by disk diffusion method; assay type: functional; conditions: read-out: IZ
Vibrio cholerae [6] = experiment: Antimicrobial activity against Vibrio cholerae at 5 ug/disc after 24 hr by disk diffusion method; assay type: functional; conditions: read-out: IZ
Streptococcus [7] = experiment: Antimicrobial activity against beta-hemolytic Streptococcus at 5 ug/disk after 24 hr by disk diffusion method; assay type: functional; conditions: read-out: IZ
Mucor [8] = experiment: Antimicrobial activity against Mucor at 100 U/disk after 72 to 96 hr by disk diffusion method; assay type: functional
Nannizzia gypsea [9] = experiment: Antimicrobial activity against Microsporum gypseum at 100 U/disk after 72 to 96 hr by disk diffusion method; assay type: functional
Aspergillus flavus [10] = experiment: Antimicrobial activity against Aspergillus flavus at 100 U/disk after 72 to 96 hr by disk diffusion method; assay type: functional
Rhizopus [11] = experiment: Antimicrobial activity against Rhizopus at 100 U/disk after 72 to 96 hr by disk diffusion method; assay type: functional
Streptococcus [12] = experiment: Antimicrobial activity against beta-hemolytic Streptococcus at 500 ppm after 24 hr by disk diffusion method; assay type: functional; conditions: read-out: IZ
Salmonella typhi [13] = experiment: Antimicrobial activity against Salmonella enterica subsp. enterica serovar Typhi at 500 ppm after 24 hr by disk diffusion method; assay type: functional; conditions: read-out: IZ
Nannizzia gypsea [14] = experiment: Antimicrobial activity against Microsporum gypseum at 500 ppm after 72 to 96 hr by disk diffusion method; assay type: functional; conditions: read-out: IZ
Pseudomonas [15] = experiment: Antimicrobial activity against Pseudomonas at 100 ppm after 24 hr by disk diffusion method; assay type: functional
Klebsiella pneumoniae [16] = experiment: Antimicrobial activity against Klebsiella pneumoniae at 100 ppm after 24 hr by disk diffusion method; assay type: functional
Staphylococcus aureus [17] = experiment: Antimicrobial activity against Staphylococcus aureus at 500 ppm after 24 hr by disk diffusion method; assay type: functional; conditions: read-out: IZ
Streptococcus [18] = experiment: Antimicrobial activity against beta-hemolytic Streptococcus at 100 ppm after 24 hr by disk diffusion method; assay type: functional
Klebsiella pneumoniae [19] = experiment: Antimicrobial activity against Klebsiella pneumoniae at 500 ppm after 24 hr by disk diffusion method; assay type: functional; conditions: read-out: IZ
Shigella flexneri [20] = experiment: Antimicrobial activity against Shigella flexneri at 100 ppm after 24 hr by disk diffusion method; assay type: functional
Mucor [21] = experiment: Antimicrobial activity against Mucor at 500 ppm after 72 to 96 hr by disk diffusion method; assay type: functional; conditions: read-out: IZ
Nannizzia gypsea [22] = experiment: Antimicrobial activity against Microsporum gypseum at 200 ppm after 72 to 96 hr by disk diffusion method; assay type: functional; conditions: read-out: IZ
Shigella flexneri [23] = experiment: Antimicrobial activity against Shigella flexneri at 200 ppm after 24 hr by disk diffusion method; assay type: functional; conditions: read-out: IZ
Rhizopus [24] = experiment: Antimicrobial activity against Rhizopus at 200 ppm after 72 to 96 hr by disk diffusion method; assay type: functional; conditions: read-out: IZ
Escherichia coli [25] = experiment: Antimicrobial activity against Escherichia coli at 200 ppm after 24 hr by disk diffusion method; assay type: functional; conditions: read-out: IZ
Klebsiella pneumoniae [26] = experiment: Antimicrobial activity against Klebsiella pneumoniae at 200 ppm after 24 hr by disk diffusion method; assay type: functional; conditions: read-out: IZ
Salmonella typhi [27] = experiment: Antimicrobial activity against Salmonella enterica subsp. enterica serovar Typhi at 200 ppm after 24 hr by disk diffusion method; assay type: functional; conditions: read-out: IZ
Escherichia coli [28] = experiment: Antimicrobial activity against Escherichia coli at 500 ppm after 24 hr by disk diffusion method; assay type: functional; conditions: read-out: IZ
Rhizopus [29] = experiment: Antimicrobial activity against Rhizopus at 500 ppm after 72 to 96 hr by disk diffusion method; assay type: functional; conditions: read-out: IZ
Rhizopus [30] = experiment: Antimicrobial activity against Rhizopus at 100 ppm after 72 to 96 hr by disk diffusion method; assay type: functional
Vibrio cholerae [31] = experiment: Antimicrobial activity against Vibrio cholerae at 200 ppm after 24 hr by disk diffusion method; assay type: functional; conditions: read-out: IZ
Salmonella typhi [32] = experiment: Antimicrobial activity against Salmonella enterica subsp. enterica serovar Typhi at 100 ppm after 24 hr by disk diffusion method; assay type: functional; conditions: read-out: IZ
Vibrio cholerae [33] = experiment: Antimicrobial activity against Vibrio cholerae at 100 ppm after 24 hr by disk diffusion method; assay type: functional; conditions: read-out: IZ
Nannizzia gypsea [34] = experiment: Antimicrobial activity against Microsporum gypseum at 100 ppm after 72 to 96 hr by disk diffusion method; assay type: functional
Escherichia coli [35] = experiment: Antimicrobial activity against Escherichia coli at 100 ppm after 24 hr by disk diffusion method; assay type: functional
Staphylococcus aureus [36] = experiment: Antimicrobial activity against Staphylococcus aureus at 100 ppm after 24 hr by disk diffusion method; assay type: functional
Streptococcus [37] = experiment: Antimicrobial activity against beta-hemolytic Streptococcus at 200 ppm after 24 hr by disk diffusion method; assay type: functional; conditions: read-out: IZ
Staphylococcus aureus [38] = experiment: Antimicrobial activity against Staphylococcus aureus at 200 ppm after 24 hr by disk diffusion method; assay type: functional; conditions: read-out: IZ
Aspergillus flavus [39] = experiment: Antimicrobial activity against Aspergillus flavus at 500 ppm after 72 to 96 hr by disk diffusion method; assay type: functional; conditions: read-out: IZ
Mucor [40] = experiment: Antimicrobial activity against Mucor at 200 ppm after 72 to 96 hr by disk diffusion method; assay type: functional; conditions: read-out: IZ
Aspergillus flavus [41] = experiment: Antimicrobial activity against Aspergillus flavus at 100 ppm after 72 to 96 hr by disk diffusion method; assay type: functional; conditions: read-out: IZ
Shigella flexneri [42] = experiment: Antimicrobial activity against Shigella flexneri at 500 ppm after 24 hr by disk diffusion method; assay type: functional; conditions: read-out: IZ
Aspergillus flavus [43] = experiment: Antimicrobial activity against Aspergillus flavus at 200 ppm after 72 to 96 hr by disk diffusion method; assay type: functional; conditions: read-out: IZ
Pseudomonas [44] = experiment: Antimicrobial activity against Pseudomonas at 200 ppm after 24 hr by disk diffusion method; assay type: functional; conditions: read-out: IZ
Pseudomonas [45] = experiment: Antimicrobial activity against Pseudomonas at 500 ppm after 24 hr by disk diffusion method; assay type: functional; conditions: read-out: IZ
Vibrio cholerae [46] = experiment: Antimicrobial activity against Vibrio cholerae at 500 ppm after 24 hr by disk diffusion method; assay type: functional; conditions: read-out: IZ
Mucor [47] = experiment: Antimicrobial activity against Mucor at 100 ppm after 72 to 96 hr by disk diffusion method; assay type: functional

O=C(O)c1cn(C2CC2)c2cc(N3CCNCC3)c(F)cc2c1=O [CIPROFLOXACIN]
22 mm: zone of inhibition at 5 µg/disc (Salmonella typhi [3])
28 mm: zone of inhibition at 5 µg/disc (Streptococcus [7])
26 mm: zone of inhibition at 5 µg/disc (Klebsiella pneumoniae [4])
23 mm: zone of inhibition at 5 µg/disc (Shigella flexneri [2]) | zone of inhibition at 5 µg/disc (Pseudomonas [5]) | zone of inhibition at 5 µg/disc (Vibrio cholerae [6])
25 mm: zone of inhibition at 5 µg/disc (Staphylococcus aureus [1])

OC(Cn1cncn1)(Cn1cncn1)c1ccc(F)cc1F [FLUCONAZOLE]
20 mm: inhibition zone (IZ) (Mucor [8]) | inhibition zone (IZ) (Nannizzia gypsea [9]) | inhibition zone (IZ) (Aspergillus flavus [10]) | inhibition zone (IZ) (Rhizopus [11])

O=C(/C=C/c1ccc(F)cc1)c1ccc(N2CCOCC2)cc1
17 mm: zone of inhibition at 500 ppm (Salmonella typhi [13]) | zone of inhibition at 200 ppm (Nannizzia gypsea [22]) | zone of inhibition at 200 ppm (Shigella flexneri [23]) | zone of inhibition at 200 ppm (Rhizopus [24]) | zone of inhibition at 200 ppm (Escherichia coli [25]) | zone of inhibition at 200 ppm (Salmonella typhi [27]) | zone of inhibition at 500 ppm (Escherichia coli [28]) | zone of inhibition at 200 ppm (Vibrio cholerae [31]) | zone of inhibition at 200 ppm (Streptococcus [37]) | zone of inhibition at 200 ppm (Staphylococcus aureus [38]) | zone of inhibition at 200 ppm (Mucor [40]) | zone of inhibition at 200 ppm (Aspergillus flavus [43]) | zone of inhibition at 500 ppm (Vibrio cholerae [46])
12 mm: zone of inhibition at 200 ppm (Klebsiella pneumoniae [26]) | zone of inhibition at 100 ppm (Salmonella typhi [32]) | zone of inhibition at 100 ppm (Vibrio cholerae [33]) | zone of inhibition at 100 ppm (Aspergillus flavus [41])
22 mm: zone of inhibition at 500 ppm (Streptococcus [12]) | zone of inhibition at 500 ppm (Staphylococcus aureus [17]) | zone of inhibition at 500 ppm (Klebsiella pneumoniae [19]) | zone of inhibition at 500 ppm (Mucor [21]) | zone of inhibition at 500 ppm (Rhizopus [29]) | zone of inhibition at 500 ppm (Shigella flexneri [42]) | zone of inhibition at 200 ppm (Pseudomonas [44])
inactive: inhibition zone (IZ) (Pseudomonas [15]) | inhibition zone (IZ) (Klebsiella pneumoniae [16]) | inhibition zone (IZ) (Streptococcus [18]) | inhibition zone (IZ) (Shigella flexneri [20]) | inhibition zone (IZ) (Rhizopus [30]) | inhibition zone (IZ) (Nannizzia gypsea [34]) | inhibition zone (IZ) (Escherichia coli [35]) | inhibition zone (IZ) (Staphylococcus aureus [36]) | inhibition zone (IZ) (Mucor [47])
30 mm: zone of inhibition at 500 ppm (Nannizzia gypsea [14]) | zone of inhibition at 500 ppm (Aspergillus flavus [39]) | zone of inhibition at 500 ppm (Pseudomonas [45])
